≈ marks a conversion by molar mass, not a printed value. Entries after “also recorded” stand apart in the source; their conditions may differ. Like-named read-outs stand apart in the source and are kept apart here.
Columns and labels:
Type in all cases: physicochemical
[1] = Hygroscopicity assessment by dynamic water vapor sorption/desorption analysis (DVS); conditions: for sample mass uptake: 25°C; for hygroscopic character: criteria: 2% maximum uptake at 60% relative humidity
Protocol: The dynamic vapor sorption (DVS) analysis with water is performed on a DVS-Intrinsic incubator from SMS Ltd, equipped with DVS-Intrinsic Control Software 1.0. A sample weight of about 8 to 10mg, placed in an aluminum pan holder, is submitted to a full cycle analysis (sorption followed by desorption) in a dm/dt mode according to the conditions described in Table 6 below. Table 6 [table] The sample obtained after crystallization protocol is pre-dried under a stream of dry filtered air until a stable weight is obtained. Next, relative humidity is increased by 5% increments. For each step, the sample mass is allowed to increase until equilibrium is reached (dm/dt criterion), and then a new relative humidity rise occurs. […] After equilibration at this point, desorption begins in a similar stepwise fashion, with sample weight again allowed to stabilize after each incremental humidity decrease. For each segment of the method described above, the recording of the sample mass allows describing of the whole sorption/desorption behavior versus relative humidity. The hygroscopic character of the two crystal forms has been investigated as described above.

[2] = Solubility assessment in pH 1 HCl/KCl buffer (saturation, 24 hours at 20°C, HPLC); conditions: pH 1, simulated gastric fluid, thermodynamic from solid
Protocol: The solubility of the HC1 salt and of the free base was compared in a pH1 HC1/KC1 buffer and in a pH 7.4 phosphate buffer. For each medium, the saturation of the medium is obtained by adding an excess of active ingredient to a given volume of test medium. The suspension is stirred over 24 hours at 20°C, protected from light. The supernatant is then isolated by centrifugation, diluted in a solvent mixture allowing its injection into the chromatographic system. The compound concentration in solution for each medium is determined by external standardization and HPLC under the conditions detailed in Table3 below. Solubility was tested over a range from 1 µg/mL up to 1 mg/mL.

[3] = Solubility assessment of the two crystal forms (solubilized free base concentration over time in pH 7.4 buffer, HPLC); conditions: for solubility: pH 7.4
Protocol: The solubility of the two crystal forms have been characterized as described below: • A suspension is prepared in the buffer. Magnetic stirring is applied at 100 rpm.
The concentration of the free base in solution in buffer solution at pH 7.4 (38g Na2HPO4, 12 H2O + 3,8g NaH2PO4, 2 H2O completed to 1L with de-ionized water) is determined after 30 min, […], 2h, 4h, 6h and 24h at ambient temperature protected from light. For that purpose, the samples are withdrawn and filtered on filter Millex PVDF 0.22µm (diameter=13mm) and diluted in water/acetonitrile 50/50 (v/v) in order to reach a concentration in the range of standard solutions concentrations. Two separated dilutions are performed for each sample and the final result is the mean of these two dilutions results. The concentration of the solubilized fraction is determined by HPLC by a short gradient reverse phase standard method with UV-diode array detection solution.
The following tables display the solubilized freebase concentrations as a function of time at pH 7.4 (Table 10) at 20°C (samples protected from light) for: - Form A : crystalline freebase (sample 2), - Form B : crystalline freebase (sample 1).

[4] = as above; conditions: pH 7.4, 20°C, protected from light

Row | sample mass uptake ([1]; 60% relative humidity) | sample mass uptake ([1]; 95% relative humidity) | solubility at 24 h [2] | Solubilized fraction ([3]; pH 7.4, 20°C, protected from light, 30min) | Solubilized fraction ([3]; pH 7.4, 20°C, protected from light, 2h) | Solubilized fraction ([3]; pH 7.4, 20°C, protected from light, 4h) | Solubilized fraction ([3]; pH 7.4, 20°C, protected from light, 6h) | Solubilized fraction ([3]; pH 7.4, 20°C, protected from light, 24 h) | solubility ([3]; phosphate buffer, 20 °C, pH 7.4, aqueous buffer, thermodynamic from solid, read-out: Solubility) | mass loss upon drying ([1]; drying at 0%RH) | Solubilized fraction ([4]; 1h) | solubility [3] | solubility at 30 min ([3]; phosphate buffer, 20 °C, pH 7.4, aqueous buffer, thermodynamic from solid, pH 7.4, 20°C, protected from light, 30min, read-out: Solubilized fraction) | solubility at 2 h ([3]; phosphate buffer, 20 °C, pH 7.4, aqueous buffer, thermodynamic from solid, pH 7.4, 20°C, protected from light, 2h, read-out: Solubilized fraction) | solubility at 4 h ([3]; phosphate buffer, 20 °C, pH 7.4, aqueous buffer, thermodynamic from solid, pH 7.4, 20°C, protected from light, 4h, read-out: Solubilized fraction) | solubility at 6 h ([3]; phosphate buffer, 20 °C, pH 7.4, aqueous buffer, thermodynamic from solid, pH 7.4, 20°C, protected from light, 6h, read-out: Solubilized fraction) | solubility at 24 h ([3]; phosphate buffer, 20 °C, pH 7.4, aqueous buffer, thermodynamic from solid, pH 7.4, 20°C, protected from light, 24 h, read-out: Solubilized fraction) | solubility at 1 h ([4]; phosphate buffer, 20 °C, pH 7.4, aqueous buffer, thermodynamic from solid, read-out: Solubilized fraction) | SMILES | hygroscopic character [1]
1 | 0.2% | 0.3% |  |  |  |  |  |  |  |  |  |  |  |  |  |  |  |  | CN(C)c1cccc(-c2c3c(=O)n(-c4ccccc4Cl)[nH]c3cc(=O)n2C)c1 [free base, 2-(2-chlorophenyl)-4-[3-(dimethylamino)phenyl]-5-methyl-1H-pyrazolo[4,3-c] pyridine-3,6(2H,5H)-dione] | non-hygroscopic
2 |  |  | > 30000 µg/mL | 0.23 mg/mL | 0.26 mg/mL | 0.27 mg/mL | 0.28 mg/mL | 0.26 mg/mL | 300 µg/mL (≈ 760 µM) | 0.2% | 0.25 mg/mL |  |  |  |  |  |  |  | CN(C)c1cccc(-c2c3c(=O)n(-c4ccccc4Cl)[nH]c3cc(=O)n2C)c1 [Form B, 2-(2-chlorophenyl)-4-[3-(dimethylamino)phenyl]-5-methyl-1H-pyrazolo[4,3-c] pyridine-3,6(2H,5H)-dione] | non-hygroscopic; also recorded: not hygroscopic
3 | 0.2% | 0.3% |  |  |  |  |  |  |  |  |  | 500 µg/mL (≈ 1270 µM) | 330 µg/mL (≈ 836 µM) | 370 µg/mL (≈ 937 µM) | 390 µg/mL (≈ 988 µM) | 400 µg/mL (≈ 1010 µM) | 510 µg/mL (≈ 1290 µM) | 350 µg/mL (≈ 886 µM) | CN(C)c1cccc(-c2c3c(=O)n(-c4ccccc4Cl)[nH]c3cc(=O)n2C)c1 [Form A, 2-(2-chlorophenyl)-4-[3-(dimethylamino)phenyl]-5-methyl-1H-pyrazolo[4,3-c] pyridine-3,6(2H,5H)-dione] | 

Source: EP3098220A1, “PROCESS FOR THE PREPARATION OF A NADPH OXIDASE INHIBITOR AND ITS POLYMORPHS AND USES THEREOF” (GenKyoTex SA, priority 2015, dated 2016)
